The text below walks through data of PubChem BioAssay AID977613 (Broad Institute, 2014).

Structures are written as SMILES. The source made the active and inactive calls. No rule for the calls is given here.

For this assay, the system named is Broad 7084-01 inhibitor HTS, set 2. The assay is described as follows: single-concentration hits, screen 7084 set 2 (AID 977613).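 Also: host cells are infected with parasite promastigotes that become internalized.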
As for `Cc1nn(C)cc1NC(=O)C[C@@H]1CC[C@H]2[C@H](COc3ccc(NC(=O)C4CCOCC4)cc3C(=O)N2C)O1`, the active concentration was > 10 µM (inactive). Regarding `CN1c2ccc(Br)cc2[C@H]2[C@H](CCN2C(=O)Cc2ccccc2)[C@H]1CO`, the active concentration was > 10 µM (inactive). For the molecule `N#C[C@@H]1[C@@H](c2ccccc2-c2ccccc2F)[C@@H](CO)N1C(=O)Cc1ccccc1`, the active concentration is > 10 µM (inactive). Regarding `CN1C(=O)c2cc(NC(=O)c3ccc(F)c(F)c3)ccc2OC[C@H]2O[C@@H](CC(=O)N[C@H]3CCN(Cc4ccccc4)C3)CC[C@@H]21`, the active concentration is > 10 µM (inactive). Consider `CN1c2ccc(Br)cc2[C@@H]2[C@@H](CCN2S(=O)(=O)c2cccc(F)c2)[C@@H]1CO`, for which the active concentration is > 10 µM (inactive).

Regarding `O=C(c1ccccn1)N1CC(=O)N2[C@H](CO)[C@H](c3ccc(C4=CCCC4)cc3)[C@@H]2C1`, the active concentration was > 10 µM (inactive).

Turning to `O=C(Nc1ccc(F)cc1)N1CC(=O)N2[C@H](CO)[C@H](c3ccc(C#Cc4cccnc4)cc3)[C@@H]2C1`, the active concentration is > 10 µM (inactive). For `COc1ccc(-c2ccc3c(c2)[C@@H]2[C@@H](CCN2C(=O)CN2CCOCC2)[C@H](CO)N3)cc1` the value was > 10 µM (inactive); for `O=C(CC(F)(F)F)N1C[C@H]2[C@@H](c3ccccc31)[C@@H](CO)N2CC1CCOCC1`, > 10 µM (inactive); for `CN(C)C(=O)c1cccc(-c2ccc([C@H]3[C@H](CO)N4C(=O)CN(C(=O)C5CCC5)C[C@@H]34)cc2)c1`, > 10 µM (inactive).

In the case of `O=C(C1CCCCC1)N1C[C@H]2[C@@H](c3ccccc31)[C@H](CO)N2C(=O)Cc1ccccn1`, the active concentration is > 10 µM (inactive).

For `O=C(C[C@@H]1CC[C@H]2[C@@H](COC[C@@H](O)CN2S(=O)(=O)c2ccc(F)cc2)O1)NCC1CC1`, the active concentration is > 10 µM (inactive). `COc1cccc(CN2CC3(CN(C)C3)c3c([nH]c4cc(OC)ccc34)[C@H]2CO)c1`: the active concentration is > 10 µM (inactive). With `CN1C(=O)c2cc(NC(=O)c3ccccc3Cl)ccc2OC[C@H]2O[C@H](CC(=O)NCC(F)(F)F)CC[C@H]21` the figure was > 10 µM (inactive); with `COc1ccccc1C(=O)Nc1ccc2c(c1)C(=O)N(C)[C@H]1CC[C@@H](CC(=O)NCCc3ccncc3)O[C@H]1CO2`, > 10 µM (inactive). Turning to `COc1cccc(C#Cc2ccc([C@H]3[C@@H](CO)N4C(=O)CN(C(=O)Cc5cccnc5)C[C@H]34)cc2)c1`, the active concentration is > 10 µM (inactive). With `O=C(CC(F)(F)F)N1C[C@@H]2[C@H](c3ccccc31)[C@H](CO)N2CC1CCOCC1` the figure was > 10 µM (inactive); with `O=C(C[C@@H]1CC[C@@H]2[C@H](COC[C@@H](O)CN2C(=O)c2cccnc2)O1)NCc1ccccc1`, > 10 µM (inactive).

For the molecule `O=C(C[C@@H]1CC[C@@H]2[C@H](COC[C@@H](O)CN2C(=O)Nc2ccc(Cl)c(Cl)c2)O1)NCc1ccc(Cl)cc1`, the active concentration is > 10 µM (inactive). Turning to `Cc1noc(C)c1NC(=O)Nc1ccc2c(c1)C(=O)N(C)[C@H]1CC[C@H](CC(=O)NCc3ccc(Cl)cc3)O[C@@H]1CO2`, the active concentration is > 10 µM (inactive). With `O=C(C1CC1)N1CC2(C1)[C@H](c1ccccc1)[C@@H](CO)N2Cc1nccs1` the figure was > 10 µM (inactive); with `CCCNC(=O)N1[C@H](CO)[C@H](c2ccccc2-c2ccccc2F)[C@@H]1C#N`, > 10 µM (inactive). For `C/C=C/c1ccccc1[C@@H]1[C@@H](CO)N(C(=O)Cc2ccccn2)[C@H]1C#N` the value was > 10 µM (inactive).

Take `COc1ccc(C#Cc2ccc3c(c2)[C@H]2[C@H](CCN2C(=O)CN2CCOCC2)[C@H](CO)N3C)cc1`: the active concentration was > 10 µM (inactive). For `COc1ccc2c3c([nH]c2c1)[C@H](CO)N(C)CC31CCN(C(=O)c2ccccc2F)CC1` the value was > 10 µM (inactive). With `COc1ccc2c3c([nH]c2c1)[C@@H](CO)N(S(C)(=O)=O)CC31CN(CC2CCOCC2)C1` the figure was > 10 µM (inactive).

`O=C(C[C@@H]1CC[C@H]2[C@@H](COC[C@H](O)CN2C(=O)c2ccncc2)O1)NCc1ccc(-c2ccccc2)cc1`: the active concentration is > 10 µM (inactive). For the molecule `O=S(=O)(c1ccccc1)N1CCCCN2[C@@H](CO)[C@@H](c3ccc(C#CC4CCCC4)cc3)[C@@H]2C1`, the active concentration was > 10 µM (inactive). As for `O=C([C@H]1[C@H](CO)[C@H]2Cn3c(ccc(-c4ccccc4F)c3=O)[C@@H]1N2C(=O)C1CCC1)N1CCCCC1`, the active concentration was > 10 µM (inactive). For `O=S(=O)(Cc1ccccc1)N1[C@H](CO)[C@@H](c2ccccc2)C12CN(CCC(F)(F)F)C2` the value was > 10 µM (inactive); for `COc1cccc(-c2ccc([C@H]3[C@H]4CNCC(=O)N4[C@H]3CO)cc2)c1`, > 10 µM (inactive). With `Cc1ccccc1-c1ccccc1[C@@H]1[C@H](C#N)N(C(=O)c2ccccc2)[C@H]1CO` the figure was > 10 µM (inactive); with `CC(C)NC(=O)N1CC2(C1)[C@H](c1ccccc1)[C@@H](CO)N2C(=O)C1CCCC1`, > 10 µM (inactive). For `O=C(CC(F)(F)F)N1C[C@@H]2[C@H](c3ccccc31)[C@H](CO)N2C(=O)C1CC1` the value was > 10 µM (inactive); for `CCC(=O)N1CC2(C1)[C@H](c1ccc(-c3ccc(C)cc3)cc1)[C@@H](CO)N2S(=O)(=O)CC`, > 10 µM (inactive); for `O=C(C[C@@H]1CC[C@@H]2[C@H](COC[C@@H](O)CN2Cc2ccc(Cl)cc2)O1)NCc1ccccc1Cl`, > 10 µM (inactive). `Cc1noc(C)c1NC(=O)N1C[C@@H](O)COC[C@@H]2O[C@H](CC(=O)NCC3CCCCC3)CC[C@H]21`: the active concentration was > 10 µM (inactive).

On to `CN1C(=O)c2cc(NC(=O)c3ccc(F)c(F)c3)ccc2OC[C@@H]2O[C@@H](CC(=O)N[C@@H]3CCN(Cc4ccccc4)C3)CC[C@H]21`, for which the active concentration was > 10 µM (inactive). For `CN(C)C(=O)C[C@@H]1CC[C@@H]2[C@H](COC[C@H](O)CN2CC2CC2)O1` the value was > 10 µM (inactive); for `CCC(=O)N1CC2(C1)[C@@H](c1ccc(-c3cccc(C)c3)cc1)[C@@H](CO)N2S(C)(=O)=O`, > 10 µM (inactive). For `N#C[C@H]1[C@@H](c2ccccc2C2=CCCCC2)[C@H](CO)N1C(=O)c1cccc(F)c1` the value was > 10 µM (inactive). Take `O=C(C[C@H]1CC[C@H]2[C@@H](COC[C@@H](O)CN2CC2CCOCC2)O1)NCC1CCCCC1`: the active concentration was > 10 µM (inactive). With `O=C(C[C@H]1CC[C@H]2[C@@H](COC[C@H](O)CN2C(=O)c2ccncc2)O1)NCc1ccc(-c2ccccc2)cc1` the figure was > 10 µM (inactive); with `O=C(c1ccccn1)N1CC[C@@H]2[C@@H](CO)Nc3ccc(Br)cc3[C@@H]21`, > 10 µM (inactive). With `O=C(C1CCOCC1)N1C[C@H]2[C@@H](c3ccccc31)[C@H](CO)N2C(=O)Cc1ccccc1` the figure was > 10 µM (inactive). Regarding `COc1cc(CN2CC3(CCN(S(=O)(=O)c4cn(C)cn4)CC3)c3c(n(C)c4cc(OC)ccc34)[C@H]2CO)cc(OC)c1`, the active concentration is > 10 µM (inactive). With `COCC(=O)N1[C@H](C(=O)Nc2ccccc2)[C@@H](CO)[C@@H]2Cn3c(ccc(-c4cccnc4)c3=O)[C@@H]21` the figure was > 10 µM (inactive); with `CN1C(=O)c2cc(NC(=O)Cc3cccs3)ccc2OC[C@H]2O[C@H](CC(=O)N[C@@H]3CCN(Cc4ccccc4)C3)CC[C@H]21`, > 10 µM (inactive).

In the case of `COCC#Cc1ccc([C@H]2[C@@H](CO)N3C(=O)CN(C(=O)Nc4ccccc4F)C[C@@H]23)cc1`, the active concentration was > 10 µM (inactive). For `O=C(Cc1ccccn1)N1CC[C@@H]2[C@H](CO)Nc3ccc(-c4cccc(F)c4)cc3[C@@H]21` the value was > 10 µM (inactive). With `CN1C[C@@H](O)COC[C@@H]2O[C@@H](CC(=O)NC3CCCC3)CC[C@H]21` the figure was > 10 µM (inactive); with `N#C[C@@H]1[C@@H](c2ccccc2-c2ccc(F)cc2)[C@H](CO)N1C(=O)Cc1cccnc1`, > 10 µM (inactive).

As for `COc1cccc(C#Cc2ccc([C@@H]3[C@@H](CO)N4C(=O)CN(C(=O)Cc5cccnc5)C[C@H]34)cc2)c1`, the active concentration was > 10 µM (inactive). With `CCC(=O)N1CC2(C1)CN(C(=O)c1cnccn1)[C@H](CO)c1c2c2ccc(OC)cc2n1C` the figure was > 10 µM (inactive); with `CCCC#Cc1ccc([C@H]2[C@H]3CN(C(=O)CN4CCOCC4)CC(=O)N3[C@H]2CO)cc1`, > 10 µM (inactive). For `COc1cccc(S(=O)(=O)N2CCCCN3[C@H](CO)[C@H](c4ccc(C#CCC(C)C)cc4)[C@@H]3C2)c1` the value was > 10 µM (inactive); for `N#C[C@H]1[C@H](c2ccccc2-c2ccccc2F)[C@H](CO)N1C(=O)Cc1ccccc1`, > 10 µM (inactive); for `CN1C(=O)c2cc(NS(C)(=O)=O)ccc2OC[C@H]2O[C@@H](CC(=O)N3CCOCC3)CC[C@@H]21`, > 10 µM (inactive). For `OC[C@@H]1[C@H](c2ccccc2)C2(CN(Cc3nccs3)C2)N1Cc1cccnc1` the value was > 10 µM (inactive); for `COc1ccc2c3c(n(C)c2c1)[C@@H](CO)N(CC1CCOCC1)CC31CN(Cc2nccs2)C1`, > 10 µM (inactive); for `CC(C)C#Cc1ccc([C@@H]2[C@@H](CO)N3C(=O)CN(C(=O)Cc4ccccc4)C[C@H]23)cc1`, > 10 µM (inactive). Turning to `COc1ccccc1-c1ccc2n(c1=O)C[C@H]1[C@H](CO)[C@@H](C(=O)N3CCOCC3)[C@@H]2N1CC1CC1`, the active concentration was > 10 µM (inactive). Consider `N#C[C@H]1[C@@H](c2ccccc2C2=CCCC2)[C@H](CO)N1S(=O)(=O)c1ccccc1`, for which the active concentration was > 10 µM (inactive). Consider `COc1ccc2c3c([nH]c2c1)[C@H](CO)N(S(=O)(=O)c1ccc(C)cc1)CC31CCN(Cc2nccs2)CC1`, for which the active concentration is > 10 µM (inactive).
